One compound from patent US20260355164A1, “USE OF JUN INHIBITOR IN PREPARING MEDICAMENT FOR TREATING HEART FAILURE WITH PRESERVED EJECTION FRACTION” (Fuwai Hospital, Chinese Academy of Medical Sciences and …, priority 2022, published 2026) can be followed below.

Type in all cases: in vivo, mouse (C57BL/6N)
In assay [1] the test system is mouse HFpEF model. The assay is described as follows: Echocardiography and Doppler imaging (systolic and diastolic function) in HFpEF model mice (HFD+L-NAME). To be noted: male mice. An excerpt: (§1) Male C57BL/6N wild-type mice aged 8 to 10 weeks were divided into three groups, namely, normal group (normal diet and drinking water), model control group (high-fat diet combined with administration of N-nitro-L-arginine methyl ester) and model treatment group (high-fat diet combined with administration of N-nitro-L-arginine methyl ester and treatment with T-5224). Among them, the model control group and the model treatment group were modeled by the following literature: Gabriele G. Schiattarella et al., Nitrosative stress drives heart failure with preserved ejection fraction, https://doi.org/10.1038/s41586-019-1100-z. Specifically, heart failure with preserved ejection fraction was induced by a high-fat diet (HFD) (60% kcal, from fat (lard)) and N-nitro-L-arginine methyl ester (abbreviated as L-NAME, 0.5 g/L in drinking water) to obtain the HFpEF animal model. […]
All the mice were raised under different conditions for five weeks and then began to undergo conventional echocardiography and Doppler imaging, which was performed every two weeks until the end of the 15th week. […] All parameters were measured at least 3 times, and the mean values were provided. […]

Assay [2] is described as follows: Changes in body weight / obesity of HFpEF model mice with different treatments. The conditions noted are these: HFD+L-NAME mice treated with T-5224 (total dose 250 mg/kg); FIG. 3C. An excerpt:
Male C57BL/6N wild-type mice aged 8 to 10 weeks were divided into three groups, namely, normal group (normal diet and drinking water), model control group (high-fat diet combined with administration of N-nitro-L-arginine methyl ester) and model treatment group (high-fat diet combined with administration of N-nitro-L-arginine methyl ester and treatment with T-5224). Among them, the model control group and the model treatment group were modeled by the following literature: Gabriele G. Schiattarella et al., Nitrosative stress drives heart failure with preserved ejection fraction, https://doi.org/10.1038/s41586-019-1100-z. Specifically, heart failure with preserved ejection fraction was induced by a high-fat diet (HFD) (60% kcal, from fat (lard)) and N-nitro-L-arginine methyl ester (abbreviated as L-NAME, 0.5 g/L in drinking water) to obtain the HFpEF animal model.
After the animal model was obtained, that was, from the 5′ week of inducing the HFpEF model, the model treatment group was treated with T-5224, the model control group was treated with a solvent without drug, and the mice with normal diet and drinking water during the whole induction process were used as negative control. The mice were administrated with drugs when they were raised for 5 weeks. For the treatment group, T-5224 was administered at 250 mg/kg according to the body weight of mice. […]

The test system of assay [3] is Jun. The assay can be described thus: Quantitative PCR detection of Jun expression in cardiomyocytes of HFpEF model mice. The conditions noted are these: HFD+L-NAME mice treated with T-5224, compared with the model control group; qPCR, b-Actin standardized; FIG. 3D.
From the text: as §1, with “https://doi.org/10.1038/s41586-019-1100-z.” for “https://doi.org/10.1038/s41586-019-1100-z. Specifically, heart failure with preserved ejection fraction was induced by a high-fat diet (HFD) (60% kcal, from fat (lard)) and N-nitro-L-arginine methyl ester (abbreviated as L-NAME, 0.5 g/L in drinking water) to obtain the HFpEF animal model.”
In the 15th week of model induction, the cardiomyocytes of normal group and the model control group were isolated by perfusion method, and quantitative RCR detection was performed. […]
Total RNA was extracted from cells using GeneJet RNA purification kit (Thermo Scientific, K0732), and […] of total RNA was reverse transcribed using iScript TM cDNA synthesis kit (Bio-Rad, 1708890) to generate cDNA. qPCR was performed using iTaqUniversl SYBR Green supermix (1725121, Bio-Rad) on ABI Vii7 real-time system (Life Technologies, Q6), and b-Actin was used for standardized quantitative analysis. […]
A general note: Real-time PCR tracks product formation cycle by cycle.

SMILES strings stand for the structures. “Also recorded” adds a separate entry of the source.

With `O=C(O)CCc1cc(C(=O)c2ccc(OC3CCCC3)cc2O)ccc1OCc1ccc2c(O)noc2c1` [T-5224], the “diastolic function (E/E′)” value in assay [1] (HFD+0.5 g/L L-NAME, T-5224 0.8 mg in 200 μL 1% PVP every other day, 5th to 13th week, total dose 250 mg/kg, followed to 15th week, FIG. 3B) was “significantly improved and could be maintained until the 15th week”. Further, the “occurrence and development of HFpEF” value in assay [1] (HFD+L-NAME, cardiac function detection after T-5224 administration (from 5th week, total dose 250 mg/kg), FIG. 3A-B, 250 mg/kg) is “effectively alleviate the occurrence and development of HFpEF; also recorded: well suppressed”. The “mouse obesity (changes in body weight)” value in assay [2] is reported as “improved”. The “expression of Jun in cardiomyocytes” value in assay [3] is reported as “down-regulated compared with the model control group”.
